Reference: patent publication US12637425B2, “Compounds and formulations for treating ophthalmic diseases” (Visus Therapeutics, Inc., priority 2020, dated 2026)

Target: T1, Recombinant cryAB(R120G) protein (Homo sapiens, UniProt P02511, R120G)
T1 sequence (P02511 1-175 R120G): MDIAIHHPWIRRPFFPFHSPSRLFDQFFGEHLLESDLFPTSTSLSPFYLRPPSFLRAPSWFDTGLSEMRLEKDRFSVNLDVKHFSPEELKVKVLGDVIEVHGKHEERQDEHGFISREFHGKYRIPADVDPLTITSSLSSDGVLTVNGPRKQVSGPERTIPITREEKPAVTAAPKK
Experiment: Kinetic turbidity aggregation assay of recombinant cryAB(R120G)
Format: biochemical
Details: for % Inhibition of Protein Aggregation, 25 μM cmpd / inhibition at 25 µM: 25 μM compound; for inhibition at 25 µM: read-out: % Inhibition of Protein Aggregation, 25 μM cmpd; for inhibition at 100 µM: read-out: % Inhibition of Protein Aggregation, 100 μM cmpd; for inhibition at 400 µM: 400 μM compound, read-out: % Inhibition of Protein Aggregation, 400 μM cmpd; for IC50: inhibition of cryAB(R120G) protein aggregation
Method: Example A-1: Kinetic Turbidity Aggregation Assay of Recombinant cryAB(R120)
Recombinant cryAB(R120G) protein was diluted to 100 μM in assay buffer (50 mM Tris, 100 mM NaCl, 5 mM DTT, 0.01% Triton X-100, 0.05% PEG-8000). Compounds were dissolved in DMSO at 10 mM then typically diluted to 2.5 mM in DMSO and serially diluted 2-fold as necessary. To a 384-well black microplate in quadruplicate was added 81 μL assay buffer, followed by 15 μL protein solution, and 4 μL compound to give a final concentration of 15 μM cryAB(R120G) protein in 4% DMSO. […] N.D. is not determined.

[1] = 15 μM cryAB(R120G), 42° C., absorbance at 550 nm
[2] = 100 μM compound, 15 μM cryAB(R120G), 42° C., absorbance at 550 nm

Compound	% Inhibition of Protein Aggregation, 25 μM cmpd [1] [%]	% Inhibition of Protein Aggregation, 100 μM cmpd [2] [%]	inhibition at 25 µM [1] [%]	inhibition at 100 µM [2] [%]	inhibition at 400 µM [1] [%]	IC50 [µM]
Cn1cc(C(CNS(=O)(=O)c2cccc3[nH]ccc23)N2CCCC2)c2ccccc21 (stereo not shown) [Compound 28, N-(2-(1-methyl-1H-indol-3-yl)-2-(pyrrolidin-1-yl)ethyl)-1H-indole-4-sulfonamide]	7	98.5				
CCn1nc([C@H](CNS(=O)(=O)c2ccc3cc[nH]c3c2)N2CCCC2)c2ccccc21 [Compound 92, (S)-N-(2-(1-ethyl-1H-indazol-3-yl)-2-(pyrrolidin-1-yl)ethyl)-1H-indole-6-sulfonamide]			49	99.3		
Cn1cc([C@H](CNS(=O)(=O)c2ccc3cc[nH]c3c2)N2CCC2)c2ccccc21 [Compound 102, (R)-N-(2-(azetidin-1-yl)-2-(1-methyl-1H-indol-3-yl)ethyl)-1H-indole-6-sulfonamide]			94	94.3		
CN(C)C(CNS(=O)(=O)c1ccc2nc[nH]c2c1)c1cn(C)c2ccccc12 (stereo not shown) [Compound 6, N-(2-(dimethylamino)-2-(1-methyl-1H-indol-3-yl)ethyl)-1H-benzo[d]imidazole-6-sulfonamide]			19.5	-38	18.8	
Cc1ccc2c(C(CNS(=O)(=O)c3ccc4cc[nH]c4c3)N(C)C)cn(C)c2c1 (stereo not shown) [Compound 100, N-(2-(1,6-dimethyl-1H-indol-3-yl)-2-(dimethylamino)ethyl)-1H-indole-6-sulfonamide]			61.7	99.9		
Cn1cc([C@H](CNS(=O)(=O)c2ccc3cc[nH]c3c2)N2CCCC2)c2ccncc21 [Compound 83, (R)-N-(2-(1-methyl-1H-pyrrolo[2,3-c]pyridin-3-yl)-2-(pyrrolidin-1-yl)ethyl)-1H-indole-6-sulfonamide]			1	26		
Cn1cc([C@H](CNS(=O)(=O)c2ccc3cc[nH]c3c2)N2CC[C@H](c3ccccc3)C2)c2ccccc21 [Compound 61, N-((R)-2-(1-methyl-1H-indol-3-yl)-2-((R)-3-phenylpyrrolidin-1-yl)ethyl)-1H-indole-6-sulfonamide]			1	66.7		
Cn1cc([C@@H](CNS(=O)(=O)c2ccc3cc[nH]c3c2)N2CCCC2)c2ccncc21 [Compound 82, (S)-N-(2-(1-methyl-1H-pyrrolo[2,3-c]pyridin-3-yl)-2-(pyrrolidin-1-yl)ethyl)-1H-indole-6-sulfonamide]			16	38		
O=S(=O)(NC[C@@H](c1cnc2ccccn12)N1CCCC1)c1ccc2cc[nH]c2c1 [Compound 79, (S)-N-(2-(imidazo[1,2-a]pyridin-3-yl)-2-(pyrrolidin-1-yl)ethyl)-1H-indole-6-sulfonamide]			8	98.7		
Cn1cc(C(CNS(=O)(=O)c2ccc3cc[nH]c3c2)NCc2ccccc2)c2ccccc21 (stereo not shown) [Compound 50, N-(2-(benzylamino)-2-(1-methyl-1H-indol-3-yl)ethyl)-1H-indole-6-sulfonamide]			95	94.1		≤ 10
Cn1cc([C@@H](CNS(=O)(=O)c2ccc3cc[nH]c3c2)N2CC[C@H](c3ccccc3)C2)c2ccccc21 [Compound 60, N-((S)-2-(1-methyl-1H-indol-3-yl)-2-((R)-3-phenylpyrrolidin-1-yl)ethyl)-1H-indole-6-sulfonamide]			57	94.9		
CC(C)n1cc(C(CNS(=O)(=O)c2ccc3cc[nH]c3c2)N(C)C)c2ccccc21 (stereo not shown) [Compound 23, N-(2-(dimethylamino)-2-(1-isopropyl-1H-indol-3-yl)ethyl)-1H-indole-6-sulfonamide]	61			99	100	10 to 50
CN(C)C(CNS(=O)(=O)c1ccc2cc[nH]c2c1)c1ccc2cc[nH]c2n1 (stereo not shown) [Compound 15, N-(2-(dimethylamino)-2-(1H-pyrrolo[2,3-b]pyridin-6-yl)ethyl)-1H-indole-6-sulfonamide]			50	85.8	67.6	
